From a melting point compilation (Tetko et al.; mined from patent text by program, amines drawn as free bases though some values may be those of a salt) come the findings set out here.

The structures appear in SMILES notation.

With `Cn1ncc2[nH]c3ccc(Cc4cccc(O)c4)cc3c(=O)c21`, the melting point (as a rule, the temperature of the solid-liquid transition) is more than 270 °C. Take `CC(C)c1cccc(C(C)C)c1NC(=O)CN1CCN(CCCSc2nc3ncccc3o2)CC1`: the melting point fell in the range of 125 to 127 °C. The value for `O=[N+]([O-])c1ccc(S)c(Cl)c1` was 77 to 78 °C; that for `CC1(C)C=C(c2cccc(C(F)(F)F)c2)c2ccc(O)cc2O1` was 102 to 106 °C; that for `CC(C)(C)c1cc(C(=O)NCCc2ccc(N)cc2)cc(C(C)(C)C)c1O` was 193 to 195 °C. The value for `CS(=O)(=O)c1cccc(NC(=O)c2cnn3c(C(F)(F)F)cc(-c4ccc(C(F)(F)F)c(Cl)c4)nc23)c1` was 268 °C. The value for `N#CCCCCN1C(=NCCCn2ccnc2)c2cccc3cccc1c23` was 76 to 78.5 °C. Take `COCc1c(C(=O)OC(C)(C)C)ncc2[nH]c3ccc(OCc4ccccc4)cc3c12`: the melting point was in the range of 160 to 167 °C.

`CON1C=C2N=NC3=C(N2C1)N(C1CCCCC1)CC(C)=C3` registered a melting point of 174 to 177 °C. The value for `CC(=Nc1ccc(Cl)nn1)N(C)C` was 73 °C. The value for `CC1(C)Oc2ccc(I)cc2[C@@H](N2Cc3ccccc3C2=O)[C@@H]1O` (relative stereo) was 224 to 228 °C; that for `O=C1CCC(=O)N1c1cccc2ccccc12` was 154 °C.

As for `O=C(CNc1ccc2[nH]c(=O)sc2c1)N1CCC(Cc2ccc(F)cc2)CC1`, the melting point is 149 to 155 °C. The value for `COc1ccc(C(=O)OC(=O)NC(CO)Cc2ccc(O)cc2)cc1OC` (stereo not given) was 152 to 155 °C. `CC(C)(C)c1cc(C(N)=NO)cc2c1OCC2(C)C` displayed a melting point of 109 to 110 °C. With `O=[N+]([O-])c1oc2ccc(CN3CCOCC3)cc2c1-c1ccccc1` the figure was 151 to 154 °C.

As to `O=C(c1cccc(Cl)c1)c1cc(F)nc2ccccc12`, the melting point worked out at 93.2 °C. With `CCOC(=O)c1cc2cccnc2nc1C(=O)OCC` the figure was 83 to 85 °C; with `CC(=O)NCC1CC(c2ccc(Br)cc2)=NO1` (stereo not given), 198 to 199 °C.

`COc1ccc(C2=NN(C3CCN(C(=O)CN4C(=O)COCC4=O)CC3)C(=O)C(C)(C)C2)cc1OC` yielded a melting point of 210 to 211 °C. With `CCC(O)(CC)c1cc(C)c(-c2cccc(OCc3ccc(CO)c(CO)c3)c2)c(C)c1` the figure was 133 °C. The value for `CS(=O)(=O)CC(=O)Nc1ccccc1` was 140 to 141 °C; that for `CCCCCNc1cc(C(=O)OCCCCC)cc(S(N)(=O)=O)c1Oc1ccccc1` was 138 to 139 °C; that for `O=C1NC(=O)C(=Cc2ccc3c(c2)CCC(Cc2ccccc2)O3)S1` (single isomer, unassigned; (-)) was 255 °C. As to `CCCCCCCCCCCCCCCCSCC(O)CO` (stereo not given), the melting point lay in the range of 72 to 74 °C. In turn, `N#Cc1sccc1[N+](=O)[O-]` came in with a melting point of 87 to 88 °C. The value for `O=C(CCCC(Cl)=C(C(=O)O)c1csc(NC(=O)OCc2ccccc2)n1)OCc1ccccc1` was 146 to 147 °C.

For `CCCCC(=O)c1ccc(OCC(=O)O)c(Cl)c1Cl`, the melting point lay in the range of 110 to 113 °C.

`Cn1cc(Cl)c(=O)c(-c2cccc(C(F)(F)F)c2)c1` displayed a melting point of 170 to 172 °C.

Take `CC(C)C(=O)C(C)(C)SN(C)C(=O)ON=C1SC(C)(C)C(=O)N1C`: the melting point was 112 to 114 °C. The value for `FC(F)(F)Oc1ccc2nc(Cl)sc2c1` was less than 50 °C; that for `CC[C@@](O)(CC(=O)N1C(=O)O[C@@H](c2ccccc2)[C@H]1c1ccccc1)c1ccnc(OC)c1COCc1ccccc1` was 61 °C. As to `CC(C)(COc1ccc(CNC(=O)C2Cc3ccccc3N2S(=O)(=O)c2ccc(-c3ccccc3C(F)(F)F)cc2)cc1)C(=O)O` (stereo not given), the melting point is 98 to 105 °C. `COc1cc(N)c(Cl)cc1C(=O)NCCN1CCC2(CC1)C(=O)NCN2c1ccccc1` displayed a melting point of 247 °C. The value for `COC(=O)NNC(=O)Cl` was 55 to 58 °C; that for `Cc1nc2cc(-c3ccc(C=C4SC(=O)NC4=O)cc3)cc(C34CC5CC(CC(C5)C3)C4)c2o1` was 354 to 360 °C. The compound `CC(C)N1CCN(c2ccc(C(=O)NCCCCCCCCCCCCO[N+](=O)[O-])cn2)CC1` returned a melting point of 56 to 58 °C. With `Cc1ccc(O)c(C(C)(C)CC(C)(C)C)c1`, the melting point lay in the range of 42 to 45 °C.

Regarding `Nc1cc(N2CCNCC2)c(F)cc1[N+](=O)[O-]`, the melting point lay in the range of 120 to 121 °C. Compound `Nc1ccc(C(=O)N2CCN(NC(=O)c3ccc(F)cc3)CC2)cc1` had a melting point of 209 °C.
